{"source": "paper PMC6261607", "about": "“Novel high–throughput myofibroblast assays identify agonists with therapeutic potential in pulmonary fibrosis that act via EP2 and EP4 receptors” (PLoS ONE, 2018)", "key": {"[1]": {"tested_on": "normal human lung fibroblasts (NHLF)", "assay": "Phenotypic high-content assay (HCA) of TGF–β1–induced fibroblast–to–myofibroblast differentiation", "assay_type": "cell-based", "details": "NHLF, 5 ng/ml TGF–β1 for 48 h, compound added with TGF–β1; mean ± SD; read-out: HCA IC50", "summary_of_the_method": "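NHLF starved 24 h in serum-free basal medium with 0.1% BSA, then given compounds together with 5 ng/ml TGF-β1 for 48 h (0.6% DMSO). Methanol-fixed cells imaged for DAPI, α-SMA and FN; an SVM trained on ±TGF-β1 controls classified each cell, giving per-well % myofibroblast differentiation and nuclear counts.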"}, "[2]": {"tested_on": "normal human lung fibroblasts (NHLF)", "assay": "Nuclear count in the HCA, standard assay", "assay_type": "cell-based", "details": "standard HCA, NHLF, 5 ng/ml TGF–β1, 48 h; read-out: Nuclear count IC50", "procedure": "The plate was washed 3 times with starvation medium, e.g. fibroblast basal medium (FBM, Lonza) supplemented with 0.1% faf BSA, 100 units / ml of penicillin and 100 μg / ml of streptomycin and 250 ng / ml amphotericin B, and then starved for 24 h in 30 μl volume. NHLF were differentiated into myofibroblasts by incubation with 5 ng / ml TGF–β1 (from a stock of 20 μg / ml in 4 mM HCl, 1 mg / ml BSA) for 48 h. Compounds were prepared as 5x stocks in starvation medium and added to the starved cells to a final 1x concentration concomitant with TGF–β1 addition. The final DMSO concentration in the assay was 0.6% in all wells. 48 h after TGF–β1 addition, the medium was removed and the cells were fixed in methanol for 10 min at room temperature (RT). After fixation, cells were washed 3 times with 1 x PBS and either stored at 4°C for up to 3 days or further processed. […] Images were acquired on the Opera Phenix confocal high–content screening system (Perkin Elmer) using the 20–x water immersion lens.\nDAPI stained nuclei were used to identify cells. α–SMA and FN regions were then identified and mapped to the corresponding nuclei for background correction, cell segmentation and cell feature computation to identify, classify and weigh over 400 features per cell. The computed features (S1 Table) comprise, but are not limited to, granularity, intensity, texture, area, shape and solidity of a cell in both α–SMA–and FN–expressing regions. The 0% compound effect (5 ng / ml TGF–β1) and the 100% compound effect (0 ng / ml TGF–β1) controls, were used to train and validate a support vector machine (SVM), a supervised learning model with associated learning algorithm that, once successfully validated, was applied to every cell in every well of the assayed microtiter plate. The SVM allowed autonomous weighting and classification of the characteristics and thus enabled the classifier to decide which characteristics were most relevant for the differentiation of the cell types. […] The classification of each cell was aggregated to a cell type ratio per well, represented as the computed percentage effect value per well indicative of the degree of myofibroblast differentiation. E.g. 100% equals complete myofibroblast differentiation, 0% indicates a pure fibroblast population without any signs of differentiation."}, "[3]": {"tested_on": "normal human lung fibroblasts (NHLF)", "assay": "Impedance measurement of TGF–β1–induced myofibroblast transition (IPQA), standard assay", "assay_type": "cell-based", "details": "5 ng/ml TGF–β1, compound added with TGF–β1, impedance at t = 20 h post TGF–β1, mean ± SD, read-out: Impedance IC50", "procedure": "(§1) To measure dynamic cell shape and adhesion changes during fibrotic transdifferentiation, NHLF were seeded at a density of 20,000 cells per well in FGM–2 growth medium (Lonza) containing 100 units / ml of penicillin and 100 μg / ml of streptomycin into E–plates with continued impedance signal measurement (xCELLigence system, Roche Applied Science). After overnight growth, the medium was exchanged for FBM (Lonza) supplemented with 100 units / ml of penicillin and 100 μg / ml of streptomycin and 0.1% faf BSA and cells were starved for 32 h. Compound dilution series were added and myofibroblast transition was induced by adding TGF–β1 at a concentration of 5 ng / ml, followed by continued impedance sampling for up to 48 h. For data analysis, impedance raw traces were normalized to the time point of compound addition and the baseline response (DMSO, non–TGF–β1 treated cells) was subtracted. In some cases, impedance values at defined time points were used to generate concentration–response curves to determine compound potency and efficacy using GraphPad Prism software version 7 (GraphPad Software Inc)."}, "[4]": {"tested_on": "α–SMA protein in NHLF cells", "assay": "RapidFire MS/MS quantification of α–SMA (IPQA), standard assay", "assay_type": "cell-based, human", "details": "NHLF, 5 ng/ml TGF–β1, lysed 48 h after TGF–β1, normalized to tubulin; mean ± SD; read-out: MS / MS α–SMA IC50", "procedure": "(§2) Cell culture medium was removed and cells were lysed on ice by adding 5 μl / well of pre–cooled protein extraction buffer containing 10 mM Tris–HCl (pH 8.0), 6 M urea and 2 M thiourea and shaking on ice on a plate shaker at 600 rpm for 30 min.\n(§3) Cell lysate was transferred to a 96–well polypropylene–PCR–plate. 15 μl / well denaturation buffer (6 M urea, 50 mM ammonium bicarbonate) and 2 μl / well of 50 mM TCEP were added and samples were denatured for 1 h at 60°C using the Veriti 96–well Fast Thermal Cycler System (Applied Biosystem) with a heated lid. Plates were allowed to cool to RT. Subsequently, 2 μl of 100 mM iodoacetamide were added per well to derivatize cysteine residues. Plates were then sealed and vortexed for 2 min in the dark and incubated for 30 min at 37°C in a thermal cycler with a heated lid. 90 μl of 50 mM ammonium bicarbonate pH 7.8 were added, followed by the addition of 10 μl of trypsin at 0.02 μg / ml. Samples were trypsin–digested overnight at 37°C in a thermal cycler with heated lid. […] Samples were desalted under vacuum using an Oasis HLB 96–well (30 μm particle size, 5 mg sorbent / well) reverse phase cartridge according to the manufacturer’s instructions and eluted with 170 μl of 90% acetonitrile, 0.1% formic acid. Samples were dried down with a flow of nitrogen at 40°C, left to cool to RT and re–suspended in 40 μl 5% acetonitrile, 0.1% formic acid on a plate shaker set to 1400 rpm for 5 min. Plates were centrifuged at 4,000 rpm for 10 min and 2 times 12 μl / well of supernatant were transferred into separate 96–well plates (Greiner Bio–One), sealed and stored at 4°C until analyzed by MS / MS.\n(§4) Surrogate tryptic peptides were chosen for detection of COL1 (COL1A1), α–SMA (ACTA) and tubulin (TBA1A1) and crude synthetic peptides were purchased from Thermo Fischer. After several rounds of optimization following standard workflows, […] (COL1 / COL1A1), […] (α–SMA / ACTA) and […] LC–MS / MS analysis was performed on a RapidFire™ RF360 system (Agilent Technologies) coupled to an API 5500 (ABSciex) with positive ion electrospray ionization. […] Detection was performed using multiple reaction monitoring (MRM) mode to monitor parent⟶product ion transitions (m / z). […] The source parameters were curtain gas (CUR) nitrogen: 20 psig; collision gas (CAD): 7 psig; ion source gas 1: 50.0 psig; ion source gas 2: 50.0 psig; ion spray voltage (IS): 5500 V; turbo heater temperature (TEM): 600°C; entrance potential (EP): 10V. Peak areas for COL1A1 and ACTA were normalized by dividing by TBA1A peak area."}, "[5]": {"tested_on": "COL1 protein in NHLF cells", "assay": "RapidFire MS/MS quantification of COL1 (IPQA), standard assay", "assay_type": "cell-based, human", "details": "NHLF, 5 ng/ml TGF–β1, lysed 48 h after TGF–β1, normalized to tubulin; mean ± SD; read-out: MS / MS COL1 IC50", "procedure": "as §2, §3, §4"}, "[6]": {"tested_on": "TGF–β1–induced NHLF myofibroblasts", "assay": "cells", "assay_type": "cell-based", "details": "reversal assay: 24 h 5 ng/ml TGF–β1, washed, then compound; impedance data at t = 20 h", "procedure": "as §1\n(§5) To identify compounds with potential to revert differentiated myofibroblasts to fibroblasts the assay procedures were modified. After 24 h starvation, NHLF cells were stimulated with 5 ng / ml TGF–β1 for 24 h. At t = 24 h TGF–β1 was removed and either vehicle (DMSO) or compounds were added and incubated with the cells for a further 72 h."}, "[7]": {"tested_on": "α–SMA protein in TGF–β1–induced NHLF myofibroblasts", "assay": "MS/MS α–SMA, NHLF myofibroblast reversal assay", "assay_type": "cell-based, human", "details": "reversal assay: 24 h 5 ng/ml TGF–β1, washed, 72 h compound; normalized to tubulin; read-out: MS / MS α–SMA IC50", "procedure": "as §2, §3, §4, §5"}, "[8]": {"tested_on": "COL1 protein in TGF–β1–induced NHLF myofibroblasts", "assay": "MS/MS COL1, NHLF myofibroblast reversal assay", "assay_type": "cell-based, human", "details": "reversal assay: 24 h 5 ng/ml TGF–β1, washed, 72 h compound; normalized to tubulin; read-out: MS / MS COL1 IC50", "procedure": "as §2, §3, §4, §5"}, "[9]": {"tested_on": "rat lung myofibroblasts (RLMyoF)", "assay": "Impedance in primary myofibroblasts from fibrotic rat lungs", "assay_type": "cell-based, Wistar rat", "details": "S8 Fig", "method": "Isolation of fibroblasts from the right middle lung lobe of bleomycin–instilled 20–month old Wistar rats. […] On day 0, rats (n = 3) were anesthetized with isoflurane and instilled intra–tracheally with 315 mg of bleomycin sulfate (Baxter) in a volume of 210 μl followed by 210 μl of air to equally distribute the substance in the lung. On day 28, rats were euthanized using isoflurane (5%), exsanguinated and right lung middle lobes (RML) were collected in a sterile culture dish on ice in Dulbecco's Modified Eagle's Medium (DMEM) / F12 (1:1, Thermo Fisher), minced, washed 3 times with DMEM / F12 medium and digested with 0.1% collagenase (Collagenase II–S: Invitrogen) and 15 μg / ml DNase (DNase I, Sigma) in DMEM / F12 medium in a shaking water bath at 37°C for 15 min. Digests were separated by gravity and the supernatant was transferred to a new vial supplemented with 4 volumes of ice–cold starter medium consisting of DMEM / F12 (1:1), 10% (v / v) fetal bovine serum (PAA), 1% (v / v) penicillin / streptomycin 100 U / 100 μg / ml (Thermo Fisher), and insulin / transferrin / sodium selenite (Thermo Fisher). Then, the cell suspension was passed through a cell strainer by centrifugation at 1600 rpm at 4°C for 10 min. The pelleted cells were resuspended in pre–warmed (37°C) starter medium and seeded in a cell culture dish. After 60 minutes, the medium was replaced by new starter medium. After 24 hours, the medium was exchanged for DMEM / F12 to which 10% (v / v) fetal bovine serum and 1% penicillin / streptomycin was added."}}, "note": "Like-named read-outs stand apart in the source and are kept apart here.", "data": [{"smiles": "CCn1c(-c2nonc2N)nc2cnc(Oc3cccc(NC(=O)c4ccc(OCCN5CCOCC5)cc4)c3)cc21", "note": "[GSK–269962]", "values": [{"measurement": "IC50", "setting": "[1]", "value": "240 ± 270", "unit": "nM"}, {"measurement": "IC50", "setting": "[2]", "value": "> 50000", "unit": "nM"}, {"measurement": "IC50", "setting": "[3]", "value": 1010, "unit": "nM"}, {"measurement": "IC50", "setting": "[4]", "value": "22 ± 1", "unit": "nM"}, {"measurement": "IC50", "setting": "[5]", "value": 3100, "unit": "nM"}, {"measurement": "IC50", "setting": "[6]", "value": "> 10000", "unit": "nM"}, {"measurement": "IC50", "setting": "[7]", "value": 35, "unit": "nM"}, {"measurement": "IC50", "setting": "[8]", "value": 537, "unit": "nM"}, {"measurement": "IC50", "setting": "[9]; read-out: RLMyoF impedance IC50 (3 h), impedance at 3 h", "value": 11, "unit": "nM"}, {"measurement": "IC50", "setting": "[9]; read-out: RLMyoF impedance IC50 (20 h), impedance at 20 h", "value": 133, "unit": "nM"}]}]}
